Data from patent US20250302927A1, “MODIFIED FACTOR XA POLYPEPTIDES AND METHODS OF USE” (The United States of America, as represented by the …, priority 2022, published 2025).
Blank lines part the entries; values can stand above or below the molecule they belong to.

How the values were obtained:
[1] = Inhibition of FXa variant chromogenic substrate cleavage by apixaban (IC50); format: biochemical, human; conditions: for IC50: apixaban, fixed amounts of FXa variants, increasing apixaban concentrations
Experimental: Chromogenic FXa activity assay: The FXa activity assay based on CS11(65)a chromogenic substrate (Biophen) was performed as described below. […] For each sample, substrate cleavage was calculated by taking the average rate over the time frame between 1 and 2 minutes.
Activity and inhibitory concentration were determined for a larger series of variants (FIGS. 2A and 2B). Activities for all variants were determined using the rate of chromogenic substrate cleavage in pure buffer system at different FXa concentrations. Variants were assigned into five brackets (FIG. 2A). […] To be assigned as potentially beneficial the combined scores were ***** but the individual score could not be less than **.

[2] = target: T1, Tissue factor pathway inhibitor (TFPI) (Homo sapiens, UniProt P10646); assay: ACTICHROME TFPI assay; format: biochemical; conditions: 4 nM variants vs 100 nM andexanet alfa, FIG. 5
T1 construct: BioMedica Diagnostics (assay kit)
T1 sequence (P10646 29-304): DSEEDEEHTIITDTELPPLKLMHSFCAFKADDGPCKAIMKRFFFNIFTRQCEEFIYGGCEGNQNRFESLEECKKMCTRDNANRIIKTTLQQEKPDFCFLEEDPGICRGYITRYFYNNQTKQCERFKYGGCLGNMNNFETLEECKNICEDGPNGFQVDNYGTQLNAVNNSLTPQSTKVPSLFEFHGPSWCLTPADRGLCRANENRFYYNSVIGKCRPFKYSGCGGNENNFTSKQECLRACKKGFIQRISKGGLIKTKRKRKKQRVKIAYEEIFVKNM
Experimental: Tissue factor pathway inhibitor (TFPI) plays a very important role in regulation of the procoagulant activity of tissue factor (TF). […] TFPI activity was determined using ACTICHROME® TFPI assay (BioMedica Diagnostics) according to manufacturer's protocol.

Male CD-1 mice = assay: Tail clip bleeding model; format: in vivo; conditions: for Bleeding profile (bleeding graphs): apixaban 4 mg/kg, FIG. 4D
Experimental: Tail clip bleeding model: Animal experiments were performed at the U.S. FDA/CBER Division of Veterinary Services in accordance with the protocol approved by the institutional animal care and use committee (IACUC). Male CD-1 mice (Charles River Laboratories, Kingston, NY, USA) were 5-8 weeks old weighing 28-34 grams. […] After 5 minutes, 3 mm of tail were cut, after which the tail was immersed in a tube with predefined volume of 0.9% NaCl at 37° C. and allowed to bleed for 30 minutes under close observation. Blood loss was determined by measuring hemoglobin content and expressed as μl/mouse.
The design of the in vivo study in mice is depicted in FIG. 3B. […] The tails of the mice were clipped, and bleeding monitored by measuring bleeding time (FIG. 3C) and blood loss (FIG. 3D). […] All bleeding episodes were plotted using the length and number of episodes of bleeds for each individual mouse (FIG. 3E) to determine the bleeding profiles.
Additional experiments were performed in the mouse model, as above, but with the inclusion of andexanet alfa for comparison. The experimental strategy is depicted in FIG. 4A.

[3] = tested on: tissue factor (TF)-triggered pooled normal human plasma; assay: Thrombin generation assay in plasma spiked with apixaban; format: biochemical
Experimental: Thrombin generation assay: The procoagulant activity of FXa variants was evaluated by a previously described thrombin generation assay in tissue factor (TF)-triggered pooled normal human plasma (Affinity Biologicals Inc, Ontario, Canada). […] Fluorescence (product of thrombin substrate consumption) was recorded in a kinetic mode at 37° C. using a Tecan Infinite F500 every 45 seconds for a period of 1.7 hours. In-house software was used to calculate calibrate thrombin generation assay (using an internal thrombin calibrator CAT® from Stago, Parsippany, NJ, USA) and calculate thrombin peak height parameter.

Factor VII (FVII) = target: T2, Factor VII (FVII) (Homo sapiens, UniProt P08709); assay: 1H NMR binding of apixaban to Factor VII; conditions: stoichiometric amounts, FIG. 1H
T2 sequence (P08709 61-466): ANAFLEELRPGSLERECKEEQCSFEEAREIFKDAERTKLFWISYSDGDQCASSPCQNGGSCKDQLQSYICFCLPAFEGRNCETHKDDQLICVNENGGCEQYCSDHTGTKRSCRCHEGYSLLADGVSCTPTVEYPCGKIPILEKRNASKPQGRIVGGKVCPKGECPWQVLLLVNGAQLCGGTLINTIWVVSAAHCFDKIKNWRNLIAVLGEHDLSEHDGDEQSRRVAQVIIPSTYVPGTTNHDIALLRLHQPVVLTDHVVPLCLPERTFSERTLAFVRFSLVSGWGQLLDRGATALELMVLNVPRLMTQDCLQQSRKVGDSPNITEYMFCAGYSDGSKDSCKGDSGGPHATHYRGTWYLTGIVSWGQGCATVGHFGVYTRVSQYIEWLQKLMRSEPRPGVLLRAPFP
Excerpt: FIGS. 1A-1H show design and functional characterization of low affinity FXa variants. FIG. 1A illustrates the computational strategy using RosettaDesign and homology insertion. […] Variants 69 and 70 are located on the same region between H311 and T318. […] FIG. 1F is a graph showing the rate of chromogenic substrate cleavage in pure buffer systems by FXa variants at different concentrations. […] Values for IC50±SD were obtained from fitted curves. […] The top spectrum is the result of superposition of ligand and protein signals with no alteration. The reference NMR spectrum (middle) contains only sharp signals, as expected for an NMR spectrum of a small molecule.
The final models allowed identification of clashes with apixaban. Following manual inspection of the models, 21 designs were selected. […] (ii) Two proteins were used as homology models to identify potential mutations to include as insertions. The human factor VII (FVII) (PDB ID: 1DAN) crystal structure was superimposed onto the human FXa (PDB ID: 2P16) crystal structure and differences in amino acid identity were analyzed. Final insertion identities were based on proximity to binding pocket and length. […] Seven FXa variants were selected based on this strategy. Some of these designs failed experimental validations. In a follow up round of homology-based designs, the insertions from Factor VII were decreased in length and number. […]

[4] = target: Tissue factor pathway inhibitor (TFPI), P10646

IC50 [1]: 151 to 250 nM
Molecule: Variant 65: modified Factor Xa polypeptide, G440A, S1 subsite, SEQ ID NO: 8

fold higher IC50 values for apixaban compared to the wild-type FXa ([1]; FIG. 1G): ~350 fold | IC50 [1]: > 251 nM
Molecule: Variant 61: modified Factor Xa polypeptide, W439A, S4 subsite, SEQ ID NO: 2
response to TFPI (TFPI activity) [2]: much smaller response to TPFI compared to andexanet alfa | Bleeding time (Male CD-1 mice; 1 mg/kg infused 5 min after apixaban, FIG. 3C): significantly reduced bleeding time | Blood loss (Male CD-1 mice; 1 mg/kg infused 5 min after apixaban, FIG. 3D): successfully reversed the anticoagulant effect of apixaban | Bleeding profile (bleeding graphs) (Male CD-1 mice): multiple breaks in blood flowing from the tail cut | Bleeding time (Male CD-1 mice; apixaban dose of 4 mg/kg, FIG. 4B): significant decrease | Blood loss (Male CD-1 mice; apixaban dose of 4 mg/kg, FIG. 4C): significant decrease | Km ([3]; activity in the presence of a fixed amount (1 μM) of apixaban, read-out: apparent Km): 1100 ± 171 nM | potency compared with wild type FXa ([3]; thrombin generation assay as worded): less potent than wild type FXa

binding to FVII by NMR (Factor VII (FVII)): does not bind to FVII
Molecule: COc1ccc(-n2nc(C(N)=O)c3c2C(=O)N(c2ccc(N4CCCCC4=O)cc2)CC3)cc1 [apixaban, reference compound]
Bleeding profile (bleeding graphs) (Male CD-1 mice): mostly uninterrupted flow of blood | Bleeding time, apixaban group compared to the control group (Male CD-1 mice; tail clip, FIG. 3C): significantly greater

B1: FXa variant 70 (amino acids 312-317 replaced with STYVPG) (protein)
chain: GPANSFLEEMKKGHLERECMEETCSYEEAREVFEDSDKTNEFWNKYKDGDQCETSPCQNQGKCKDGLGEYTCTCLEGFEGKNCELFTRKLCSLDNGDCDQFCHEEQNSVVCSCARGYTLADNGKACIPTGPYPCGKQTLERRKRSVAQATSSSGEAPDSITWKPYDAADLDPTENPFDLLDFNQTQPERGDNNLTRIVGGQECKDGECPWQALLINEENEGFCGGTILSEFYILTAAHCLYQAKRFKVRVGDRNTEQEEGGEAVHEVEVVIKHSTYVPGTYDFDIAVLRLKTPITFRMNVAPACLPERDWAESTLMTQKTGIVSGFGRTHEKGRQSTRLKMLEVPYVDRNSCKLSSSFIITQNMFCAGYDTKQEDACQGDSGGPHVTRFKDTYFVTGIVSWGEGCARKGKYGIYTKVTAFLKWIDRSMKTRGLPKAKSHAPEVITSSPLK
TFPI activity (ACTICHROME TFPI assay) [4]: both variants #61 and #70 showed much smaller response to TPFI compared to andexanet alfa
